# In US20230302131A1, “MPC INHIBITION FOR PRODUCING T-CELLS WITH A MEMORY PHENOTYPE” (UNIVERSITÉ DE LAUSANNE, priority 2020, published 2023):
# Test system: adult human CD8 T cells
# Assay: Adult human PBMC activation with anti-CD3/CD28 beads, T cell phenotype by flow cytometry
# Type: cell-based
# Conditions: adult PBMCs, day 9, vs DMSO
# Experimental: FIG. 7: MPC inhibition during the activation and culture of adult human T cells induces a memory phenotype. (A) Experimental design. PBMCs were isolated from adult healthy volunteers and activated with anti-CD3/CD28 beads in the presence of DMSO or UK5099 (25 μM). Beads were removed at day 5 and T cell phenotype was analysed at day 9. (B) Percentage of CD8 T cells expressing the memory marker CD62L. (C) The mean fluorescent intensity of CD62L in the respective positive population. (D) Percentage of CD8 T cells expressing markers that allows their identification as stem cell memory T cells (TSCM). (E-F) Mitochonrial mass (identified by MitoGreen staining, E) and mitochondrial membrane potential (TMRM, F), measured by flow cytometry and expressed as fold change as compared to DMSO. (G) Mitochondrial membrane potential normalized for the mitochondrial mass, expressed as the ratio of […], fold change as compared to DMSO. Pooled data from 2 independant experiments. ns: non-significant, *p<0.05, **[…], ***p<0.001. Data represents mean±s.e.m.
# Heparinised blood was diluted with PBS and pipetted on top of Ficoll-paque (LymphoPrep). After centrifugation at 1800 rpm for 20 minutes at room temperature, the layer of cells at the intersection, containing the PBMCs was removed, washed and resuspended at 5×10^5 cells/ml of RPMI medium containing 8% human serum (AB serum), antibiotics, 2 mM L-Glutamine, 1% non-essential amino acids, 1 mM sodium pyruvate and 50 μM β-mercaptoethanol (all Gibco). Cells were activated with Human T-activator CD3/CD28 Dynabeads at a 1 bead/cell ratio with 150 IU/ml human recombinant IL2 and DMSO or 25 μM UK5099. Throughout the culture, cells were regularly split when necessary and beads were removed at day 5. At day 9, a fraction of the cells was stained with antibodies for flow cytometry analysis or for mitochondrial analysis.
smiles,measurement,setting,value
CC(C)(O)CNc1nc(Nc2ccnc(C(F)(F)F)c2)nc(-c2cccc(C(F)(F)F)n2)n1 [AG221],population of CD8 T cells positive for CD62L,UK5099 25 μM,further induce
same,mean fluorescent intensity of the CD62L signal in the CD62L-positive cells,,increased
